Type in all cases: biochemical
In one assay the target is JAK-2 (Homo sapiens (Human), UniProt O60674). The assay is described as follows: Inhibition test on JAK-2 kinase (FRET peptide substrate assay). As to conditions: kinase 1 nM, 1 h at room temperature. The text has this:
(§1) Experiment Example (Inhibition Tests on JAK-1, JAK-2 and JAK-3 Kinases)
(§2) To evaluate the inhibitory activity of the compound on JAK-1, JAK-2 and JAK-3 kinases
(§3) A proteolytic enzyme is coupled to exert different proteolysis on a specific phosphorylated and nonphosphorylated peptide substrate based on fluorescence resonance energy transfer (FRET). Both ends of the peptide substrate were respectively labeled FRET energy donor coumarin and energy receptor fluorescein, and at this time, the donor was stimulated to produce energy transfer when the donor is close to a receptor.
(§4) In Kinase Reaction, JAK-1, JAK-2 or JAK-3 may transfer γ-phosphoric acid in ATP onto a single tyrosine residue of a peptide substrate; and there were JAK-1, JAK-2 or JAK-3 inhibitors in the system, γ-phosphoric acid groups on ATP would be not transferred onto the peptide substrate, thus resulting in the failure of phosphorylation. An evaluation experiment was designed based on the principle, a peptide substrate was designed with kinase phosphorylation sites, namely, protein restriction enzyme cutting sites; and both ends thereof were respectively connected with 2 fluorophores as a donor and a receptor respectively; if the kinase kept activity in the system, a γ-phosphonic acid group was transferred onto restriction enzyme cutting sites of the substrate, so that the γ-phosphonic acid group would not be cut and separated into two segments by a protease; moreover, under the stimulation of a laser having a specific wavelength, energy from a segment of fluorescence would be transferred onto another end of fluorophores, thus emitting energy. Otherwise, after kinase activity was inhibited, phosphoric acid groups would be not transferred, and restriction enzyme cutting sites in the substrate would be cut by a […] in the system to separate the substrate into two segments, thereby no energy transfer of fluorescence occurred. Based on this, the activity of the kinase was evaluated.
(§5) In this experiment, a 10 μl kinase reaction system was selected, firstly, 2.5 μl kinase (concentration: 1 nM), 2.5 μl peptide substrate (concentration: 2 μM), 2.5 μl ATP (concentration: […]) and 2.5 μl compound were added to each system for reaction for 1 h at room temperature, and then a 5 μl test solution was added for reaction for 1 h at room temperature, then a 5 μl stop buffer was added. A microplate reader (Synergy H1, BioTek, USA) was used to measure fluorescence intensity (emission intensity of coumarin at 445 nm and emission intensity of fluorescein at 520 nm were detected under the stimulation of 400 nm). The inhibitory activity of each compound was calculated, where it was believed that fluorescence intensity of a well not containing the kinase was 100% inhibited.

The target of the next assay is JAK-3 (Homo sapiens (Human), UniProt P52333). The assay is described as follows: Inhibition test on JAK-3 kinase (FRET peptide substrate assay).
Sequence of JAK-3 (P52333 whole entry): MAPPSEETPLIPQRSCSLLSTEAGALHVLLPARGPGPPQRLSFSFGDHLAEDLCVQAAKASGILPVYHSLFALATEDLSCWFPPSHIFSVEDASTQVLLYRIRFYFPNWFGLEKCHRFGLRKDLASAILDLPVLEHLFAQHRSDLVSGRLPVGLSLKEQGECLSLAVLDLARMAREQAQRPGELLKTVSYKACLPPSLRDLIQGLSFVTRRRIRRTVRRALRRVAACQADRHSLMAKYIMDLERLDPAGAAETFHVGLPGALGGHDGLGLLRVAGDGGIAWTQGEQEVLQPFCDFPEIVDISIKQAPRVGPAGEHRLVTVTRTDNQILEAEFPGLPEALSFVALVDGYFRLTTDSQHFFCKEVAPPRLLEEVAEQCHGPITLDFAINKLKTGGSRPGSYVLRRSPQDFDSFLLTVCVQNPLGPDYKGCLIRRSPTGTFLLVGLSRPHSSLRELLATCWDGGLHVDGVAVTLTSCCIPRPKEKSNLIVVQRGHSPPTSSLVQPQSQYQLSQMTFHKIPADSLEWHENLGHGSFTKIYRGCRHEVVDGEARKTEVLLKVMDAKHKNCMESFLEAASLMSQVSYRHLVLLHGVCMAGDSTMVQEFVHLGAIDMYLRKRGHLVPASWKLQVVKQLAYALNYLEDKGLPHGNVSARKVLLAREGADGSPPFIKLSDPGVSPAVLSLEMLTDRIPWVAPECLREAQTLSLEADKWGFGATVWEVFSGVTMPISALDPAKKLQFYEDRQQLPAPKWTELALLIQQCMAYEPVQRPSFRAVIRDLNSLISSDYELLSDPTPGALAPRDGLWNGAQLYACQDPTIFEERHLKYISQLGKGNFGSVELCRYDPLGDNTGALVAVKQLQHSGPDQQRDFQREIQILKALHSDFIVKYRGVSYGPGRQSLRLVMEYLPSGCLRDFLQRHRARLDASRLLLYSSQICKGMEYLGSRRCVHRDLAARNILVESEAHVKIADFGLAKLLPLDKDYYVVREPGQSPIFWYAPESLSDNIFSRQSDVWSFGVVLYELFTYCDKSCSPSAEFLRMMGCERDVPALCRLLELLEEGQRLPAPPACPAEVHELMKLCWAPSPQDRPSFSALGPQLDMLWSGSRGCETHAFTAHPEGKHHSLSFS
From the text: as §1, §2, §3, §4, §5

In a further assay the target is JAK-1 (Homo sapiens (Human), UniProt P23458). The assay is described as follows: Inhibition test on JAK-1 kinase (FRET peptide substrate assay). As to conditions: kinase 1 nM, 1 h at room temperature.
Sequence of JAK-1 (P23458 whole entry): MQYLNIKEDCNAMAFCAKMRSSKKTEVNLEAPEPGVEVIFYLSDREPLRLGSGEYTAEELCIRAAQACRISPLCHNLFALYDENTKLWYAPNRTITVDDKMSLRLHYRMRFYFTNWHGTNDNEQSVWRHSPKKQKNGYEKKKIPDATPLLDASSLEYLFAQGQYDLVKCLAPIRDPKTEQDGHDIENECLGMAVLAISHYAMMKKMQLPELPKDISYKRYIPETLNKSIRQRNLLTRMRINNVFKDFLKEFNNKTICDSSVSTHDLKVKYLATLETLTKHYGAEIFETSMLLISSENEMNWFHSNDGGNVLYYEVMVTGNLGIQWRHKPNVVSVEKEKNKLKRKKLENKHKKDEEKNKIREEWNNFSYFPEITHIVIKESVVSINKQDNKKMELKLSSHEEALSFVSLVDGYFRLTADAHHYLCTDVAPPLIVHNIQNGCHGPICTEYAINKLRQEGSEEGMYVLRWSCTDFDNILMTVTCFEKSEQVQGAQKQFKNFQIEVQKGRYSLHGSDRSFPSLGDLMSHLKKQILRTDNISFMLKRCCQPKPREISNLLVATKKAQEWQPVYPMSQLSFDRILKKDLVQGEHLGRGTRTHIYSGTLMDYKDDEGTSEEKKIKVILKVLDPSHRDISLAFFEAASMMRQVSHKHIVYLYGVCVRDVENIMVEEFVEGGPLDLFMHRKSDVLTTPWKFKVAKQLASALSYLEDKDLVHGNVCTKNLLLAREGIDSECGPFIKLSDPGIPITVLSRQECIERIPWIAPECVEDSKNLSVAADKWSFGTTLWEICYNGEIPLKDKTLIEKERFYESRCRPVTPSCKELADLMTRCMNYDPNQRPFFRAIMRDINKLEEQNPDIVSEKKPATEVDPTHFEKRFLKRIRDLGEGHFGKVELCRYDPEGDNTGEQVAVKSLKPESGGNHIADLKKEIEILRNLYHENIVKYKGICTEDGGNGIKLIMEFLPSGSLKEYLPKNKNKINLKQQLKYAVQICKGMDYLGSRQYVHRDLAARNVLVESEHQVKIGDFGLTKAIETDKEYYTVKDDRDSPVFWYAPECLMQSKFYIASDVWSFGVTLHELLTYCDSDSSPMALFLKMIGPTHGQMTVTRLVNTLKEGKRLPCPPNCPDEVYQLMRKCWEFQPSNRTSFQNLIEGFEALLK
From the text: as §1, §2, §3, §4, §5

The mark [1] stands for this setting: kinase 1 nM, 1 h at room temperature, read-out: IC50 (nM) JAK-3.

The structures appear in SMILES notation. Like-named read-outs stand apart in the source and are kept apart here.

Sequence of JAK-2 (O60674 whole entry): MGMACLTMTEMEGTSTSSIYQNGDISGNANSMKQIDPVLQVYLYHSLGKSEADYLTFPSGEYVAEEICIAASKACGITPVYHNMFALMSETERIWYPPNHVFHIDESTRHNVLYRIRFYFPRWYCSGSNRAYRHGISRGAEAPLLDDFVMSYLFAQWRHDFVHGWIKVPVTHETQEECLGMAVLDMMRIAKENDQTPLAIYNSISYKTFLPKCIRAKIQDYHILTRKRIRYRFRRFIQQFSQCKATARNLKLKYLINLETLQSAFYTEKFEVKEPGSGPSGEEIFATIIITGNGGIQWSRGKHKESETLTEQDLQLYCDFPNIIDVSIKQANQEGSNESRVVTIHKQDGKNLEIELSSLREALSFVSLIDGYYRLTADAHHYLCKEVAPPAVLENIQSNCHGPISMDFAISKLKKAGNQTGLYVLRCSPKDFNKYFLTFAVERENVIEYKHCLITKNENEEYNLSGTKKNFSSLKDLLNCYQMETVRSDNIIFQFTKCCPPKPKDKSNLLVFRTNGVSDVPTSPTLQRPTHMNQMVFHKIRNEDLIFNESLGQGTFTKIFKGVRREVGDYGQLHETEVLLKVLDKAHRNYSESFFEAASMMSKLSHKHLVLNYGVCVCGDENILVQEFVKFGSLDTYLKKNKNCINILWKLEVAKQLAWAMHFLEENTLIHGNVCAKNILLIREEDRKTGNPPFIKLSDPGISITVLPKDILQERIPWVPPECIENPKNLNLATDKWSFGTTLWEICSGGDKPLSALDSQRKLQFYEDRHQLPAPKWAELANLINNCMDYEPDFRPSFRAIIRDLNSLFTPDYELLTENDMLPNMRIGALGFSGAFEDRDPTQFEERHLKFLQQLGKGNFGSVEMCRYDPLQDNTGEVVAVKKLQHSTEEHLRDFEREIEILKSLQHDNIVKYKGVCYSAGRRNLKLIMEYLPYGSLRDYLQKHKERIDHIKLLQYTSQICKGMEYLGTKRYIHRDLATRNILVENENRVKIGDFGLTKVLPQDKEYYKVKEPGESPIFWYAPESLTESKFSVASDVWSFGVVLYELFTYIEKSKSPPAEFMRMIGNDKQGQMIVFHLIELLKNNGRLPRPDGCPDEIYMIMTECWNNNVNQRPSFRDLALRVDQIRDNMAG

For `C=CC(=O)Nc1cccc(Cn2ncc3cnc(Nc4cnn(CCOC)c4)nc32)c1` [Example 1, N-(3-((6-((1-(2-methoxyethyl)-1H-pyrazol-4-yl)amino)-1H-pyrazolo[3,4-d]pyrimidine-1-yl)methyl)phenyl)acrylamide], the IC50 on JAK-2 is 747 nM; on JAK-3 (differs from Table 5, read-out: JAK-3 inhibitory activity IC50) it was 0.085 nM; at JAK-3 (setting [1]), 1.4 nM.

With `C/C=C/C(=O)Nc1ccc(Cn2ncc3cnc(Nc4ccc(F)cc4)nc32)cc1` [Example 26, N-(4-((6-((4-fluorophenyl)amino)-1H-pyrazolo[3,4-d]pyrimidine-1-yl)methyl)phenyl)but-2-enamide], the values for the IC50 at JAK-1, at JAK-2 and at JAK-3 (setting [1]) were 880 nM, 804 nM and 0.3 nM, respectively.

With `C/C=C/C(=O)Nc1ccc(Cn2ncc3cnc(Nc4ccc(N5CCN(C)CC5)cc4)nc32)cc1` [Example 28, N-(4-((6-((4-(4-methylpiperazin-1-yl)phenyl)amino)-1H-pyrazolo[3,4-d]pyrimidin-1-yl)methyl)phenyl)but-2-enamide], the IC50 at JAK-1 amounted to 4090 nM; on JAK-2, 790 nM; at JAK-3 (setting [1]) it was 2.3 nM.

For `C/C=C/C(=O)Nc1cccc(Cn2ncc3cnc(Nc4ccccc4)nc32)c1` [Example 11, N-(3-((6-aniline-1H-pyrazolo[3,4-d]pyrimidin-1-yl)methyl)phenyl)but-2-enamide], the IC50 at JAK-1 was 830 nM; on JAK-2 it was 690 nM; at JAK-3 (setting [1]), 1.4 nM.

For `C=CC(=O)Nc1cccc(Cn2ncc3cnc(Nc4ccc(N5CCN(C)CC5)cc4)nc32)c1` [Example 7, N-(3-((6-((4-(4-methylpiperazin-1-yl)phenyl)amino)-1H-pyrazolo[3,4-d]pyrimidin-1-yl)methyl)phenyl)acrylamide], the figures for the IC50 at JAK-1, at JAK-2 and on JAK-3 (setting [1]) were 942 nM, 1080 nM and 6.1 nM, respectively.

As for `C=CC(=O)Nc1cccc(Cn2ncc3cnc(Nc4cnn(CCO)c4)nc32)c1` [Example 3, N-(3-((6-((1-(2-hydroxyethyl)-1H-pyrazol-4-yl)amino)-1H-pyrazolo[3,4-d]pyrimidin-1-yl)methyl)phenyl)acrylamide], the half-maximal inhibitory concentration (IC50) on JAK-1 was 829 nM; at JAK-2, 4220 nM; on JAK-3 (setting [1]) it was 0.13 nM.

Turning to `C/C=C/C(=O)Nc1ccc(Cn2ncc3cnc(Nc4ccccc4)nc32)cc1` [Example 25, N-(4-((6-aniline-1H-pyrazolo[3,4-d]pyrimidin-1-yl)methyl)phenyl)but-2-enamide], the results for the IC50 on JAK-1, at JAK-2 and on JAK-3 (setting [1]) were 2400 nM, 1040 nM and 1.2 nM, respectively.

Regarding `C=CC(=O)Nc1cccc(Cn2ncc3cnc(Nc4cnn(C)c4)nc32)c1` [Example 2], the IC50 on JAK-1 is 1390 nM; at JAK-2, 941 nM; on JAK-3 (setting [1]) it was 2.2 nM.

As for `C/C=C/C(=O)Nc1cccc(Cn2ncc3cnc(Nc4cnn(CCO)c4)nc32)c1` [Example 10, N-(3-((6-((1-(2-hydroxyethyl)-1H-pyrazol-4-yl)amino)-1H-pyrazolo[3,4-d]pyrimidin-1-yl)methyl)phenyl)but-2-enamide], the figures for the IC50 on JAK-1, at JAK-2 and on JAK-3 (setting [1]) were 940 nM, 960 nM and 0.7 nM, respectively.

Consider `C=CC(=O)Nc1ccc(Cn2ncc3cnc(Nc4ccc(N5CCN(C)CC5)cc4)nc32)cc1` [Example 21, N-(4-((6-((4-(4-methylpiperazin-1-yl)phenyl)amino)-1H-pyrazolo[3,4-d]pyrimidin-1-yl)methyl)phenyl)acrylamide], for which the IC50 was found to be 2850 nM at JAK-1, 1800 nM on JAK-2 and 0.2 nM at JAK-3 (setting [1]).

In the case of `C=CC(=O)Nc1ccc(Cn2ncc3cnc(Nc4cnn(C)c4)nc32)cc1` [Example 16, N-(4-((6-((1-methyl-1H-pyrazol-4-yl)amino)-1H-pyrazolo[3,4-d]pyrimidine-1-yl)methyl)phenyl)acrylamide], the figures for the IC50 on JAK-1, at JAK-2 and at JAK-3 (setting [1]) were 1410 nM, 770 nM and 1.4 nM, respectively.

On to `C/C=C/C(=O)Nc1cccc(Cn2ncc3cnc(Nc4cnn(CCOC)c4)nc32)c1` [Example 8, N-(3-((6-((1-(2-methoxy-ethyl)-1H-pyrazol-4-yl)amino)-1H-pyrazolo[3,4-d]pyrimidine-1-yl)methyl)phenyl)but-2-enamide], for which the figures for the IC50 on JAK-1, on JAK-2 and on JAK-3 (setting [1]) were 701 nM, 610 nM and 3 nM, respectively.

Take `C=CC(=O)Nc1ccc(Cn2ncc3cnc(Nc4ccc(F)cc4)nc32)cc1` [Example 19, N-(4-((6-((4-fluorophenyl)amino)-1H-pyrazolo[3,4-d]pyrimidin-1-yl)methyl)phenyl)acrylamide]: the results for the IC50 at JAK-1, on JAK-2 and at JAK-3 (setting [1]) were 1580 nM, 1800 nM and 3.7 nM, respectively.

As to `C/C=C/C(=O)Nc1cccc(Cn2ncc3cnc(Nc4cnn(C)c4)nc32)c1` [Example 9, N-(3-((6-((1-methyl-1H-pyrazol-4-yl)amino)-1H-pyrazolo[3,4-d]pyrimidin-1-yl)methyl)phenyl)but-2-enamide], the IC50 was determined as 618 nM on JAK-1, 860 nM at JAK-2 and 2.1 nM at JAK-3 (setting [1]).

With `C=CC(=O)Nc1cccc(Cn2ncc3cnc(Nc4ccc(F)cc4)nc32)c1` [Example 5, N-(3-((6-((4-fluorophenyl)amino)-1H-pyrazolo[3,4-d]pyrimidin-1-yl)methyl)phenyl)acrylamide], the concentration for half-maximal inhibition (IC50) at JAK-1 worked out at 1580 nM; at JAK-2, 1800 nM; on JAK-3 (setting [1]), 3.7 nM.

For the compound `C/C=C/C(=O)Nc1ccc(Cn2ncc3cnc(Nc4cnn(C)c4)nc32)cc1` [Example 23, N-(4-((6-((1-methyl-1H-pyrazol-4-yl)amino)-1H-pyrazolo[3,4-d]pyrimidin-1-yl)methyl)phenyl)but-2-enamide], the IC50 was found to be 940 nM at JAK-1, 697 nM on JAK-2 and 0.1 nM at JAK-3 (setting [1]).

As for `C/C=C/C(=O)Nc1cccc(Cn2ncc3cnc(Nc4ccc(F)cc4)nc32)c1` [Example 12, N-(3-((6-((4-fluorophenyl)amino)-1H-pyrazolo[3,4-d]pyrimidin-1-yl)methyl)phenyl)but-2-enamide], the half-maximal inhibitory concentration (IC50) at JAK-1 was found to be 1030 nM; on JAK-2, 2310 nM; at JAK-3 (setting [1]), 0.2 nM.

As to `C=CC(=O)Nc1ccc(Cn2ncc3cnc(Nc4ccc(N5CCOCC5)cc4)nc32)cc1` [Example 20, N-(4-((6-((4-morpholinylphenyl)amino)-1H-pyrazolo[3,4-d]pyrimidin-1-yl)methyl)phenyl)acrylamide], the results for the IC50 on JAK-1, on JAK-2 and at JAK-3 (setting [1]) were 934 nM, 892 nM and 1.7 nM, respectively.

With `C/C=C/C(=O)Nc1ccc(Cn2ncc3cnc(Nc4cnn(CCO)c4)nc32)cc1` [Example 24, N-(4-((6-((1-(2-hydroxyethyl)-1H-pyrazol-4-yl)amino)-1H-pyrazolo[3,4-d]pyrimidin-1-yl)methyl)phenyl)but-2-enamide], the 50% inhibitory concentration (IC50) worked out at 1120 nM on JAK-1, 948 nM on JAK-2 and 0.2 nM at JAK-3 (setting [1]).

Turning to `C=CC(=O)Nc1ccc(Cn2ncc3cnc(Nc4ccccc4)nc32)cc1` [Example 18, N-(4-((6-aniline-1H-pyrazolo[3,4-d]pyrimidin-1-yl)methyl)phenyl)acrylamide], the results for the IC50 on JAK-1, on JAK-2 and at JAK-3 (setting [1]) were 1990 nM, 1280 nM and 2.8 nM, respectively.

As for `C/C=C/C(=O)Nc1ccc(Cn2ncc3cnc(Nc4ccc(N5CCOCC5)cc4)nc32)cc1` [Example 27, N-(4-((6-((4-morpholinylphenyl)amino)-1H-pyrazolo[3,4-d]pyrimidin-1-yl)methyl)phenyl)but-2-enamide], the figures for the 50% inhibitory concentration (IC50) at JAK-1, at JAK-2 and at JAK-3 (setting [1]) were 960 nM, 893 nM and 2 nM, respectively.

A word on the IC50: it is the concentration needed to halve the response being measured.

Source of the values: patent US11993603B2, “Preparation for 6-amino-1H-pyrazolo[3,4-d]pyrimidine-based JAK kinase inhibitor and application thereof” (INSTITUTE OF MATERIA MEDICA, CHINESE ACADEMY OF MEDICAL …, priority 2018, dated 2024).
